Source: US20220323406A1, “METHODS AND COMPOSITIONS FOR DIFFERENTIATING STEM CELLS” (Massachusetts Institute of Technology, priority 2019, published 2022)
Structures can show the parent of a compound that is named as a salt.

How the values were obtained:
[1] = system: ENR+CD organoids (ISC to Paneth cell differentiation); assay: Primary screen: basal (non-stimulated) lysozyme secretion LYZ.NS, 2.5-D 384-well ENR+CD organoid differentiation; assay type: cell-based, mouse
Description: (§1) High-throughput screening.

[2] = system: ENR+CD organoids (ISC to Paneth cell differentiation); assay: Primary screen: CCh-stimulated lysozyme secretion LYZ.S, 2.5-D 384-well ENR+CD organoid differentiation; assay type: cell-based, mouse; conditions: primary screen
Description: as §1

ENR+CD organoids = assay: Primary screen: ATP (CellTiter-Glo 3D, CTG) cell number/viability, 2.5-D 384-well ENR+CD organoids; conditions: primary screen;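 further: compounds given at plating and again on day 3 over a 6-day differentiation from ENR+CV stem-cell-enriched precursors, ATP measured on day 6, plate median as control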
[3] = dose 0.08 uM, FC vs plate median
[4] = dose 0.40 uM, FC vs plate median
[5] = dose 2.00 uM, FC vs plate median
[6] = dose 10.00 uM, FC vs plate median

Row | SMILES | Dose.FC.LYZ.NS (log2 fold change) ([1]; primary screen, dose 0.08 uM) | Z.LYZ.NS (standard z score) ([1]; primary screen, dose 0.08 uM) | Dose.FC.LYZ.NS (log2 fold change) ([1]; primary screen, dose 0.40 uM) | Z.LYZ.NS (standard z score) ([1]; primary screen, dose 0.40 uM) | Dose.FC.LYZ.NS (log2 fold change) ([1]; primary screen, dose 2.00 uM) | Z.LYZ.NS (standard z score) ([1]; primary screen, dose 2.00 uM) | Dose.FC.LYZ.NS (log2 fold change) ([1]; primary screen, dose 10.00 uM) | Z.LYZ.NS (standard z score) ([1]; primary screen, dose 10.00 uM) | Dose.FC.LYZ.S (log2 fold change) ([2]; dose 0.08 uM) | Dose.FC.LYZ.S (log2 fold change) ([2]; dose 0.40 uM) | Dose.FC.LYZ.S (log2 fold change) ([2]; dose 2.00 uM) | Dose.FC.LYZ.S (log2 fold change) ([2]; dose 10.00 uM) | Dose.FC.CTG (log2 fold change) (ENR+CD organoids; dose 0.08 uM) | Z.CTG (standard z score) (ENR+CD organoids; dose 0.08 uM) | Dose.FC.CTG (log2 fold change) (ENR+CD organoids; dose 0.40 uM) | Z.CTG (standard z score) (ENR+CD organoids; dose 0.40 uM) | Dose.FC.CTG (log2 fold change) (ENR+CD organoids; dose 2.00 uM) | Z.CTG (standard z score) (ENR+CD organoids; dose 2.00 uM) | Dose.FC.CTG (log2 fold change) (ENR+CD organoids; dose 10.00 uM) | Z.CTG (standard z score) (ENR+CD organoids; dose 10.00 uM) | further results
1 | c1cc(-c2cnn3cc(-c4ccc(N5CCNCC5)cc4)cnc23)c2cccnc2c1 [LDN-212854] | 0.095 | 0.823 | 0.051 | 0.446 | −0.217 | −1.885 | −0.273 | −2.375 | 0.162 | 0.026 | −0.292 | −0.399 | 0.238 | 0.568 | 0.129 | 0.309 | −0.475 | −1.134 | −1.263 | −3.018 | 
2 | Cl.O=C(O)Cc1cccc(OCCCN(Cc2cccc(C(F)(F)F)c2Cl)CC(c2ccccc2)c2ccccc2)c1 [GW3965 HCl] | 0.059 | 0.516 | 0.002 | 0.013 | 0.077 | 0.673 | −0.009 | −0.080 | 0.091 | 0.074 | 0.179 | −0.047 | 0.138 | 0.330 | 0.201 | 0.481 | 0.229 | 0.546 | −0.078 | −0.186 | 
3 | Cc1ccc(C(=O)N(CCCN)[C@@H](c2nc3cc(Cl)ccc3c(=O)n2Cc2ccccc2)C(C)C)cc1 [Ispinesib (SB-715992)] | −0.222 | −1.931 | −0.191 | −1.663 | −0.196 | −1.709 | −0.201 | −1.752 | −0.271 | −0.296 | −0.287 | −0.286 | −0.323 | −0.772 | −0.518 | −1.238 | −0.511 | −1.220 | −0.713 | −1.704 | 
4 | CNC(=O)[C@H](Cc1ccccc1)NC(=O)[C@H](CC(C)C)[C@H](CSc1cccs1)C(=O)NO [Batimastat (BB-94)] |  | −0.025 |  | 0.042 |  | 0.707 |  | −0.649 |  |  |  |  |  | 0.084 |  | −0.226 |  | −0.117 |  | −0.676 | Dose.FC.LYZ.NS ([1]; primary screen, dose 0.08 uM): −0.003 log2 fold change; Dose.FC.LYZ.NS ([1]; primary screen, dose 0.40 uM): 0.005 log2 fold change; Dose.FC.LYZ.NS ([1]; primary screen, dose 2.00 uM): 0.081 log2 fold change; Dose.FC.LYZ.NS ([1]; primary screen, dose 10.00 uM): −0.075 log2 fold change; Dose.FC.LYZ.S ([2]; dose 0.08 uM): 0.053 log2 fold change; Dose.FC.LYZ.S ([2]; dose 0.40 uM): 0.028 log2 fold change; Dose.FC.LYZ.S ([2]; dose 2.00 uM): 0.056 log2 fold change; Dose.FC.LYZ.S ([2]; dose 10.00 uM): −0.107 log2 fold change; Dose.FC.CTG (ENR+CD organoids; dose 0.08 uM): 0.035 log2 fold change; Dose.FC.CTG (ENR+CD organoids; dose 0.40 uM): −0.095 log2 fold change; Dose.FC.CTG (ENR+CD organoids; dose 2.00 uM): −0.049 log2 fold change; Dose.FC.CTG (ENR+CD organoids; dose 10.00 uM): −0.283 log2 fold change
5 | COCCCC/C(=N\OCCN)c1ccc(C(F)(F)F)cc1 [Fluvoxamine maleate] |  |  |  |  |  |  |  |  |  |  |  |  |  |  |  |  |  |  |  |  | Dose.FC.LYZ.NS ([1]; primary screen, dose 0.08 uM): 0.074 log2 fold change; Dose.FC.LYZ.NS ([1]; primary screen, dose 0.40 uM): 0.087 log2 fold change; Dose.FC.LYZ.NS ([1]; primary screen, dose 2.00 uM): 0.089 log2 fold change; Dose.FC.LYZ.NS ([1]; primary screen, dose 10.00 uM): −0.027 log2 fold change; Z.LYZ.NS ([1]; primary screen, standard z score, dose 0.08 uM): 0.642; Z.LYZ.NS ([1]; primary screen, standard z score, dose 0.40 uM): 0.756; Z.LYZ.NS ([1]; primary screen, standard z score, dose 2.00 uM): 0.778; Z.LYZ.NS ([1]; primary screen, standard z score, dose 10.00 uM): −0.235; Dose.FC.LYZ.S ([2]; dose 0.08 uM): 0.114 log2 fold change; Dose.FC.LYZ.S ([2]; dose 0.40 uM): 0.172 log2 fold change; Dose.FC.LYZ.S ([2]; dose 2.00 uM): 0.108 log2 fold change; Dose.FC.LYZ.S ([2]; dose 10.00 uM): 0.012 log2 fold change; Dose.FC.CTG (ENR+CD organoids; dose 0.08 uM): 0.115 log2 fold change; Dose.FC.CTG (ENR+CD organoids; dose 0.40 uM): 0.254 log2 fold change; Dose.FC.CTG (ENR+CD organoids; dose 2.00 uM): 0.211 log2 fold change; Dose.FC.CTG (ENR+CD organoids; dose 10.00 uM): 0.138 log2 fold change
6 | Cc1cc(C(C)(C)C)c(O)c(C)c1CC1=NCCN1 [Oxymetazoline HCl] |  |  |  |  |  |  |  |  |  |  |  |  |  |  |  |  |  |  |  |  | Z.LYZ.NS ([1]; primary screen, dose 0.08 uM, standard z score): 0.515; Z.LYZ.NS ([1]; primary screen, dose 0.40 uM, standard z score): 0.134; Z.LYZ.NS ([1]; primary screen, dose 2.00 uM, standard z score): 0.199; Z.LYZ.NS ([1]; primary screen, dose 10.00 uM, standard z score): 0.065; Dose.FC.LYZ.NS ([1]; primary screen; dose 0.08 uM; FC vs plate median): 0.059 log2 fold change; Dose.FC.LYZ.NS ([1]; primary screen; dose 0.40 uM; FC vs plate median): 0.015 log2 fold change; Dose.FC.LYZ.NS ([1]; primary screen; dose 2.00 uM; FC vs plate median): 0.023 log2 fold change; Dose.FC.LYZ.NS ([1]; primary screen; dose 10.00 uM; FC vs plate median): 0.007 log2 fold change; Dose.FC.LYZ.S [2, 3]: 0.143 log2 fold change; Dose.FC.LYZ.S [2, 4]: 0.116 log2 fold change; Dose.FC.LYZ.S [2, 5]: −0.012 log2 fold change; Dose.FC.LYZ.S [2, 6]: −0.046 log2 fold change; Dose.FC.CTG (ENR+CD organoids; [3]): 0.143 log2 fold change; Dose.FC.CTG (ENR+CD organoids; [4]): 0.118 log2 fold change; Dose.FC.CTG (ENR+CD organoids; [5]): −0.007 log2 fold change; Dose.FC.CTG (ENR+CD organoids; [6]): 0.118 log2 fold change
7 | COc1cc(CCc2cc(NC(=O)c3ccc(N4CC(C)NC(C)C4)cc3)n[nH]2)cc(OC)c1 (stereo not shown) [AZD4547] |  |  |  |  |  |  |  |  |  |  |  |  |  | 0.382 |  | 0.241 |  | −0.024 |  | −0.147 | Dose.FC.LYZ.S ([2]; dose 0.08 uM): 0.157 log2 fold change; Dose.FC.LYZ.S ([2]; dose 0.40 uM): 0.083 log2 fold change; Dose.FC.LYZ.S ([2]; dose 2.00 uM): 0.074 log2 fold change; Dose.FC.LYZ.S ([2]; dose 10.00 uM): −0.049 log2 fold change; Dose.FC.CTG (ENR+CD organoids; dose 0.08 uM): 0.160 log2 fold change; Dose.FC.CTG (ENR+CD organoids; dose 0.40 uM): 0.101 log2 fold change; Dose.FC.CTG (ENR+CD organoids; dose 2.00 uM): −0.010 log2 fold change; Dose.FC.CTG (ENR+CD organoids; dose 10.00 uM): −0.062 log2 fold change
